Data taken from PMC11962866 (RSC Advances, 2025).
≈ marks a conversion by molar mass, not a printed value. Read-outs that look alike come from different tables or passages of the source.

Legend:
MRC-5 cells = assay: Cytotoxicity assay on normal cells; format: cell-based, human; conditions: read-out: IC50 on MRC-5 cell lines
C. alb (SC5314) = assay: In vitro antifungal assay; format: cell-based; conditions: Candida albicans, SC5314, read-out: MIC80 C. alb (SC5314)
C. neo = assay: In vitro antifungal assay; format: cell-based; conditions: Cryptococcus neoformans, read-out: MIC80 C. neo
Strain 17# = assay: Antifungal activity against fluconazole-resistant strain; format: cell-based; conditions: Candida albicans, read-out: MIC80 Strain 17#
Strain CaR = assay: as above; format: cell-based; conditions: Candida albicans, read-out: MIC80 Strain CaR
Strain 904 = assay: as above; format: cell-based, Candida albicans; conditions: Candida albicans, 904, read-out: MIC80 Strain 904
Strain 901 = assay: as above; format: cell-based; conditions: Candida albicans, 901, read-out: MIC80 Strain 901
Strain 632 = assay: as above; format: cell-based; conditions: Candida albicans, 632, read-out: MIC80 Strain 632
Plasma stability assay = conditions: male, SD, rat
[1] = Metabolic stability assay of liver microsomes; format: in vitro ADME; conditions: mouse
[2] = tested on: C. alb (5314),C. par, C. gla, C. kru and C. neo; assay: In vitro antifungal assay, span over the five tested species; format: cell-based; conditions: range over C. alb (5314)
[3] = tested on: ERG11 and CDR1 of azole-resistant strain 904; assay: RT-PCR expression of resistant genes ERG11 and CDR1; format: cell-based, Candida albicans; conditions: 0.25 μg mL^−1, strain 904, RT-PCR

| Compound | IC50 (MRC-5 cells; 72 hours) [µM] | MIC80 (C. alb (SC5314)) [µg/mL] | MIC80 (C. neo) [µg/mL] | MIC80 (Strain 17#) [µg/mL] | MIC80 (Strain CaR) [µg/mL] | IC50 (MRC-5 cells; Homo sapiens, MRC5, 72 h) [µM] | MIC80 (Strain 904) [µg/mL] | MIC80 (Strain 901) [µg/mL] | MIC80 (Strain 632) [µg/mL] | half-life (Plasma stability assay) [min] | remaining at 3 h (Plasma stability assay) [%] | half-life [1] [min] | microsomal CLint [1] [µL/min/mg] | MIC80 / MIC span over the five tested fungi [2] [µg/mL] | Expression of ERG11 and CDR1 [3] |
| --- | --- | --- | --- | --- | --- | --- | --- | --- | --- | --- | --- | --- | --- | --- | --- |
| N.N.[Cl][Pt][Cl] [cis-Pt, reference compound] | 78.3 | – | – | – | – | – | – | – | – | – | – | – | – | – | – |
| O=C(Nc1ccc(Cl)cc1)c1ccc(COC(Cn2ccnc2)c2ccc(Cl)cc2Cl)cc1 (stereo not shown) [A03, N-(4-Chlorophenyl)-4-((1-(2,4-dichlorophenyl)-2-(1H-imidazol-1-yl)ethoxy)methyl)benzamide] | – | 0.125 (≈ 0.25 µM) | 0.06 (≈ 0.12 µM) | 16 (≈ 31.9 µM) | 8 (≈ 16 µM) | > 100 | 0.25 (≈ 0.499 µM) | 2 (≈ 3.99 µM) | 4 (≈ 7.99 µM) | – | – | – | – | – | – |
| O=C(Nc1cccc(Br)c1)c1ccc(COC(Cn2ccnc2)c2ccc(Cl)cc2Cl)cc1 (stereo not shown) [A10, N-(3-Bromophenyl)-4-((1-(2,4-dichlorophenyl)-2-(1H-imidazol-1-yl)ethoxy)methyl)benzamide] | – | 0.25 (≈ 0.458 µM) | 0.125 (≈ 0.229 µM) | 16 (≈ 29.3 µM) | 8 (≈ 14.7 µM) | > 100 | 0.25 (≈ 0.458 µM) | 2 (≈ 3.67 µM) | 8 (≈ 14.7 µM) | – | – | – | – | – | – |
| Clc1ccc(COC(Cn2ccnc2)c2ccc(Cl)cc2Cl)c(Cl)c1 (stereo not shown) [Miconazole, miconazole] | – | 0.25 (≈ 0.601 µM) | 0.125 (≈ 0.3 µM) | – | – | – | – | – | – | > 360 | 94.9 | 8.3 | 660 | – | – |
| O=C(Nc1ccc(Br)cc1)c1ccc(COC(Cn2ccnc2)c2ccc(Cl)cc2Cl)cc1 (stereo not shown) [A04, N-(4-Bromophenyl)-4-((1-(2,4-dichlorophenyl)-2-(1H-imidazol-1-yl)ethoxy)methyl)benzamide] | – | 0.06 (≈ 0.11 µM) | 0.25 (≈ 0.458 µM) | 16 (≈ 29.3 µM) | 4 (≈ 7.34 µM) | > 100 | 0.25 (≈ 0.458 µM) | 2 (≈ 3.67 µM) | 4 (≈ 7.34 µM) | – | – | – | – | – | – |
| O=C(Nc1ccc(C(F)(F)F)cc1)c1ccc(COC(Cn2ccnc2)c2ccc(Cl)cc2Cl)cc1 (stereo not shown) [A06, 4-((1-(2,4-Dichlorophenyl)-2-(1H-imidazol-1-yl)ethoxy)methyl)-N-(4-(trifluoromethyl)phenyl)benzamide] | – | 0.06 (≈ 0.112 µM) | 0.125 (≈ 0.234 µM) | 16 (≈ 29.9 µM) | 2 (≈ 3.74 µM) | > 100 | 0.25 (≈ 0.468 µM) | 2 (≈ 3.74 µM) | 2 (≈ 3.74 µM) | – | – | – | – | – | – |
| O=C(Nc1cccc2ccccc12)c1ccc(COC(Cn2ccnc2)c2ccc(Cl)cc2Cl)cc1 (stereo not shown) [A13, 4-((1-(2,4-Dichlorophenyl)-2-(1H-imidazol-1-yl)ethoxy)methyl)-N-(naphthalen-1-yl)benzamide] | – | 8 (≈ 15.5 µM) | 64 (≈ 124 µM) | 64 (≈ 124 µM) | 128 (≈ 248 µM) | > 100 | 1 (≈ 1.94 µM) | 1 (≈ 1.94 µM) | 8 (≈ 15.5 µM) | – | – | – | – | 2 to 64 | – |
| Cc1ccc(NC(=O)c2ccc(COC(Cn3ccnc3)c3ccc(Cl)cc3Cl)cc2)cc1 (stereo not shown) [A05, 4-((1-(2,4-Dichlorophenyl)-2-(1H-imidazol-1-yl)ethoxy)methyl)-N-(p-tolyl)benzamide] | – | 0.03 (≈ 0.0624 µM) | 0.25 (≈ 0.52 µM) | 8 (≈ 16.7 µM) | 4 (≈ 8.33 µM) | > 100 | 0.25 (≈ 0.52 µM) | 4 (≈ 8.33 µM) | 4 (≈ 8.33 µM) | – | – | – | – | – | – |
| O=C(Nc1ccccc1)c1ccc(COC(Cn2ccnc2)c2ccc(Cl)cc2Cl)cc1 (stereo not shown) [A01, 4-((1-(2,4-dichlorophenyl)-2-(1H-imidazol-1-yl)ethoxy)methyl)-N-phenylbenzamide] | – | 0.125 (≈ 0.268 µM) | 0.25 (≈ 0.536 µM) | 8 (≈ 17.2 µM) | 4 (≈ 8.58 µM) | > 100 | 0.5 (≈ 1.07 µM) | 2 (≈ 4.29 µM) | 4 (≈ 8.58 µM) | – | – | – | – | – | reduced to basic levels |
| O=C(Nc1cccc(F)c1)c1ccc(COC(Cn2ccnc2)c2ccc(Cl)cc2Cl)cc1 (stereo not shown) [A08, 4-((1-(2,4-Dichlorophenyl)-2-(1H-imidazol-1-yl)ethoxy)methyl)-N-(3-fluorophenyl)benzamide] | – | 0.06 (≈ 0.124 µM) | 0.125 (≈ 0.258 µM) | 16 (≈ 33 µM) | 4 (≈ 8.26 µM) | > 100 | 0.25 (≈ 0.516 µM) | 2 (≈ 4.13 µM) | 4 (≈ 8.26 µM) | – | – | – | – | – | – |
| COc1ccc(NC(=O)c2ccc(COC(Cn3ccnc3)c3ccc(Cl)cc3Cl)cc2)cc1 (stereo not shown) [A07, 4-((1-(2,4-Dichlorophenyl)-2-(1H-imidazol-1-yl)ethoxy)methyl)-N-(4-methoxyphenyl)benzamide] | – | 0.06 (≈ 0.121 µM) | 0.25 (≈ 0.504 µM) | 4 (≈ 8.06 µM) | 4 (≈ 8.06 µM) | > 100 | 0.25 (≈ 0.504 µM) | 4 (≈ 8.06 µM) | 4 (≈ 8.06 µM) | – | – | – | – | – | reduced to basic levels |
| O=C(Nc1ccc2cccnc2c1)c1ccc(COC(Cn2ccnc2)c2ccc(Cl)cc2Cl)cc1 (stereo not shown) [A12, 4-((1-(2,4-Dichlorophenyl)-2-(1H-imidazol-1-yl)ethoxy)methyl)-N-(quinolin-7-yl)benzamide] | – | 8 (≈ 15.5 µM) | 4 (≈ 7.73 µM) | 8 (≈ 15.5 µM) | 4 (≈ 7.73 µM) | > 100 | 2 (≈ 3.87 µM) | 8 (≈ 15.5 µM) | 8 (≈ 15.5 µM) | – | – | – | – | 2 to 64 | – |
| O=C(Nc1ccc2[nH]ccc2c1)c1ccc(COC(Cn2ccnc2)c2ccc(Cl)cc2Cl)cc1 (stereo not shown) [A15, 4-((1-(2,4-Dichlorophenyl)-2-(1H-imidazol-1-yl)ethoxy)methyl)-N-(1H-indol-5-yl)benzamide] | – | 128 (≈ 253 µM) | 128 (≈ 253 µM) | > 128 | 128 (≈ 253 µM) | > 100 | 8 (≈ 15.8 µM) | 8 (≈ 15.8 µM) | 128 (≈ 253 µM) | – | – | – | – | – | – |
| O=C(Nc1ccc2ccccc2c1)c1ccc(COC(Cn2ccnc2)c2ccc(Cl)cc2Cl)cc1 (stereo not shown) [A14, 4-((1-(2,4-Dichlorophenyl)-2-(1H-imidazol-1-yl)ethoxy)methyl)-N-(naphthalen-2-yl)benzamide] | – | 32 (≈ 62 µM) | 32 (≈ 62 µM) | 64 (≈ 124 µM) | 8 (≈ 15.5 µM) | > 100 | 16 (≈ 31 µM) | 16 (≈ 31 µM) | 16 (≈ 31 µM) | – | – | – | – | 2 to 64 | – |
| O=C(Nc1ccc(F)cc1)c1ccc(COC(Cn2ccnc2)c2ccc(Cl)cc2Cl)cc1 (stereo not shown) [A02, 4-((1-(2,4-Dichlorophenyl)-2-(1H-imidazol-1-yl)ethoxy)methyl)-N-(4-fluorophenyl)benzamide] | – | 0.125 (≈ 0.258 µM) | 0.5 (≈ 1.03 µM) | 8 (≈ 16.5 µM) | 8 (≈ 16.5 µM) | > 100 | 0.25 (≈ 0.516 µM) | 4 (≈ 8.26 µM) | 4 (≈ 8.26 µM) | – | – | – | – | – | – |
| O=C(Nc1cccc(Cl)c1)c1ccc(COC(Cn2ccnc2)c2ccc(Cl)cc2Cl)cc1 (stereo not shown) [A09, N-(3-Chlorophenyl)-4-((1-(2,4-dichlorophenyl)-2-(1H-imidazol-1-yl)ethoxy)methyl)benzamide] | – | 0.03 (≈ 0.0599 µM) | 0.125 (≈ 0.25 µM) | 8 (≈ 16 µM) | 8 (≈ 16 µM) | > 100 | 0.25 (≈ 0.499 µM) | 2 (≈ 3.99 µM) | 4 (≈ 7.99 µM) | – | – | – | – | – | – |
